Experimental data from the NIST ThermoML archive (doi:10.1021/acs.jced.7b00518).
± gives the expanded uncertainty stated by the source.

Experiments:
[1] = Molar enthalpy of transition or fusion; conditions: Crystal; DSC
[2] = Crystal; DTA

Molar enthalpy of transition or fusion [1]: 17.8 ± 0.478 kcal/mol
Normal melting temperature [2]: 173.47 ± 0.61 °C
Compound: O=C(O)/C=C/C(=O)O.OCCOCCN1CCN(C2=Nc3ccccc3Sc3ccccc32)CC1.OCCOCCN1CCN(C2=Nc3ccccc3Sc3ccccc32)CC1 [quetiapine fumarate]
